Source: patent US8822517B2, “Arylosulfonamides for the treatment of CNS diseases” (Adamed SP. Z O.O., priority 2010, dated 2014)

Experiments:
[1] = target: T1, serotonine transporter (SERT) receptor (Homo sapiens, UniProt P31645); assay: Binding assay SERT (h), [3H]imipramine, CHO cells; conditions: read-out: SERT [%]
T1 construct: expressed in transfected cells; host or cells: CHO cells
Outline: (§1)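 Single-concentration test (1×10^−6 M). Total and non-specific binding were counted by scintillation, and their difference defines specific binding.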

[2] = system: sigma σ receptor; assay: Binding assay σ (non-selective), [3H]DTG, rat cerebral cortex; conditions: percent inhibition of control specific binding; compounds tested at 1×10^−6 M
Outline: as §1

[3] = system: adrenergic α1 receptor; assay: Binding assay α1 (non-selective), [3H]prazosin, rat cerebral cortex; conditions: percent inhibition of control specific binding; compounds tested at 1×10^−6 M
Outline: as §1

[4] = target: T2, muscarinic M3 receptor (Homo sapiens, UniProt P20309); assay: Binding assay M3 (h), [3H]4-DAMP, CHO cells; conditions: read-out: M3 [%]
T2 construct: expressed in transfected cells; host or cells: CHO cells
T2 sequence (P20309 whole entry): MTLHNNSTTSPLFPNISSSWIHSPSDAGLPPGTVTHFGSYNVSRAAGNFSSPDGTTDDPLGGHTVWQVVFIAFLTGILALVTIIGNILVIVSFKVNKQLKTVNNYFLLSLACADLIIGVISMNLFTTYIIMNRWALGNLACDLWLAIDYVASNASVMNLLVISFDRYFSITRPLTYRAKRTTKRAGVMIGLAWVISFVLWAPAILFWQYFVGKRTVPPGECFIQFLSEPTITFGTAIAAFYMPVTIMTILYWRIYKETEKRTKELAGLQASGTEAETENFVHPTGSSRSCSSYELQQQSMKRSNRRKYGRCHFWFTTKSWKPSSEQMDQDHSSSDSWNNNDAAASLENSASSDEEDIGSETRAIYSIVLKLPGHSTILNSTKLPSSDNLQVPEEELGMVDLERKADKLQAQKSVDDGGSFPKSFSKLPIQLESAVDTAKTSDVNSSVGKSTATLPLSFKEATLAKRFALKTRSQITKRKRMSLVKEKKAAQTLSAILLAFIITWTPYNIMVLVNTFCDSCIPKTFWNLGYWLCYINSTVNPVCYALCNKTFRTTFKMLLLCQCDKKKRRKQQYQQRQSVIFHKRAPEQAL
Outline: as §1

[5] = target: T3, serotoninergic receptor 5-HT2C (Homo sapiens, UniProt P28335); assay: Binding assay 5-HT2C (h), [3H]mesulergine, HEK-293 cells; conditions: read-out: 5-HT2C [%]
T3 construct: expressed in transfected cells; host or cells: HEK-293 cells
T3 sequence (P28335 33-458): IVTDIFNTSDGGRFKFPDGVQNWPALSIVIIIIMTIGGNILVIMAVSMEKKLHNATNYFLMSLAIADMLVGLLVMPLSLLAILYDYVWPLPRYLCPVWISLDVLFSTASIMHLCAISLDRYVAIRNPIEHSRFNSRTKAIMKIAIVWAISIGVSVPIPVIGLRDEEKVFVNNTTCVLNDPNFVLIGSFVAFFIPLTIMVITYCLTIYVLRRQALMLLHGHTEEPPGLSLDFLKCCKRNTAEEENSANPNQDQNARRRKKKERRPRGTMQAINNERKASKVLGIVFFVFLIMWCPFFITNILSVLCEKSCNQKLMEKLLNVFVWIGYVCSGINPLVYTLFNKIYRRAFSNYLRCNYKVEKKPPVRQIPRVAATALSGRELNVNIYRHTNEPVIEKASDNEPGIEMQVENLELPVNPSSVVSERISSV
Outline: as §1

[6] = target: dopaminergic D3 receptor (Homo sapiens, UniProt P35462); assay: Binding assay D3 (h), [3H]methyl-spiperone, CHO cells; parameters: expressed in transfected cells; host or cells: CHO cells; conditions: read-out: D3 [%]
Chain of dopaminergic D3 receptor (P35462 whole entry): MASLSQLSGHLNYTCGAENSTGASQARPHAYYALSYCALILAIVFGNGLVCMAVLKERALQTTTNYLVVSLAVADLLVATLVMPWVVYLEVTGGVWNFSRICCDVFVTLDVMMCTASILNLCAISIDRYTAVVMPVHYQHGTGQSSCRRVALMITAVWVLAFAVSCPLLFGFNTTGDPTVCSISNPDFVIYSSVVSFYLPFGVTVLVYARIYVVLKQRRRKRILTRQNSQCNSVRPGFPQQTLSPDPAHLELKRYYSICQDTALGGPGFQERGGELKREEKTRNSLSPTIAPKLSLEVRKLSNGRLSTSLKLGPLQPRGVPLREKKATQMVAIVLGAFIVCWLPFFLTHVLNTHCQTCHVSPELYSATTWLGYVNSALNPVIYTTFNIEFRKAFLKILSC
Outline: as §1

[7] = target: serotoninergic 5-HT6 receptor (Homo sapiens, UniProt P50406); assay: Binding assay 5-HT6 (h), [3H]LSD, CHO cells; parameters: expressed in transfected cells; host or cells: CHO cells; conditions: read-out: 5-HT6
Chain of serotoninergic 5-HT6 receptor (P50406 whole entry): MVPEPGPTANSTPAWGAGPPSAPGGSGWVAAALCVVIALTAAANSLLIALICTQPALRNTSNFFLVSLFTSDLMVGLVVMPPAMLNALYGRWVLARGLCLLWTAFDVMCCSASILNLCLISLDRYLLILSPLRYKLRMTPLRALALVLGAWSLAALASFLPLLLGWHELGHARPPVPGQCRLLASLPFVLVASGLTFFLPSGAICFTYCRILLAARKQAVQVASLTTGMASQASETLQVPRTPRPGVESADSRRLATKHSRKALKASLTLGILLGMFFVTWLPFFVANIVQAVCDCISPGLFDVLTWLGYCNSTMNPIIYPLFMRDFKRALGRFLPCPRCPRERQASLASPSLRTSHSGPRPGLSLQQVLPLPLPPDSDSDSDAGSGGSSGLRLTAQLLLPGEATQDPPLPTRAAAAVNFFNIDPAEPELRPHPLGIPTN
Outline: as §1

[8] = target: serotoninergic 5-HT7 receptor (Homo sapiens, UniProt P34969); assay: Binding assay 5-HT7 (h), [3H]LSD, CHO cells; parameters: expressed in transfected cells; host or cells: CHO cells; conditions: read-out: 5-HT7
Chain of serotoninergic 5-HT7 receptor (P34969 whole entry): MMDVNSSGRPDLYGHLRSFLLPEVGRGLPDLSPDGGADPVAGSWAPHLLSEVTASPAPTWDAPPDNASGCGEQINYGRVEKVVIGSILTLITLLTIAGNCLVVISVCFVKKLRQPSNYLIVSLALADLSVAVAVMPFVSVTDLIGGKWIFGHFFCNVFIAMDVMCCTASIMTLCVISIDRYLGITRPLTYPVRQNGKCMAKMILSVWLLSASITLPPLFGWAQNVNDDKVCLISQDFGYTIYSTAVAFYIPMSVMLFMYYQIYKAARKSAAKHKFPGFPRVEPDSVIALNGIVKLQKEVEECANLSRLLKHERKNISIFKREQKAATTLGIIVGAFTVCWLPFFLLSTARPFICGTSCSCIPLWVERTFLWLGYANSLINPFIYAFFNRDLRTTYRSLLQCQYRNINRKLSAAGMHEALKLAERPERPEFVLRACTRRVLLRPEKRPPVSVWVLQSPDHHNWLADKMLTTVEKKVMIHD
Outline: as §1

[9] = target: T4, adrenergic α2C receptor (Homo sapiens, UniProt P18825); assay: Binding assay α2C (h), [3H]RX 821002, CHO cells; parameters: expressed in transfected cells; host or cells: CHO cells; conditions: read-out: α2C [%]
T4 sequence (P18825 1-462): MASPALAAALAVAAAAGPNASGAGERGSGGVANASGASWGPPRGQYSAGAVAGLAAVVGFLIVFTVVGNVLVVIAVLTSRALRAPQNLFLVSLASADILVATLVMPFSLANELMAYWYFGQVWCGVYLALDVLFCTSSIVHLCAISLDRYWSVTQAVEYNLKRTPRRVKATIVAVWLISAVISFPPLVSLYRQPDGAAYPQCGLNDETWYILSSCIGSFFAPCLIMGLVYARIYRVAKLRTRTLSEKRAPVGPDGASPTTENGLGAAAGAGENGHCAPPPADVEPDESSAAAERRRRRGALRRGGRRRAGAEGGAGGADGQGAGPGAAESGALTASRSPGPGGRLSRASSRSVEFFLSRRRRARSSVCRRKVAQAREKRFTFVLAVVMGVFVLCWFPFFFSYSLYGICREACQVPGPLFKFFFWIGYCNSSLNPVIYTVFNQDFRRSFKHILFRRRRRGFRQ
Outline: as §1

[10] = target: dopaminergic D2 receptor (Homo sapiens, UniProt P14416); assay: Binding assay D2S (h), [3H]methyl-spiperone, HEK-293 cells; parameters: expressed in transfected cells; host or cells: HEK-293 cells; conditions: read-out: D2 [%]
Chain of dopaminergic D2 receptor (P14416 1-414 isoform P14416-2): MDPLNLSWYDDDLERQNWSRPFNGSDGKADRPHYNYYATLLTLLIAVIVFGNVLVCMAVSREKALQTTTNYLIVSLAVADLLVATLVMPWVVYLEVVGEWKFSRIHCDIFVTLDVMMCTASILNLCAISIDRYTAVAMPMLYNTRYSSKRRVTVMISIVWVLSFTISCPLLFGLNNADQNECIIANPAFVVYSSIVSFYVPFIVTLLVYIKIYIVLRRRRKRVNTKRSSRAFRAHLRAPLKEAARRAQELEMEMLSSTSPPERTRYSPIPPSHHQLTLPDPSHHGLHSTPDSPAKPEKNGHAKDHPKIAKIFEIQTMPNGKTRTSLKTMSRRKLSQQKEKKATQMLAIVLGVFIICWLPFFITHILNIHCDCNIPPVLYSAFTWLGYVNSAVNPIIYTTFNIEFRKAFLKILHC
Outline: as §1

[11] = target: T5, serotoninergic 5-HT1A receptor (Homo sapiens, UniProt P08908); assay: Binding assay 5-HT1A (h), [3H]8-OH-DPAT, HEK-293 cells; parameters: expressed in transfected cells; host or cells: HEK-293 cells; conditions: read-out: 5-HT1A
T5 sequence (P08908 1-422): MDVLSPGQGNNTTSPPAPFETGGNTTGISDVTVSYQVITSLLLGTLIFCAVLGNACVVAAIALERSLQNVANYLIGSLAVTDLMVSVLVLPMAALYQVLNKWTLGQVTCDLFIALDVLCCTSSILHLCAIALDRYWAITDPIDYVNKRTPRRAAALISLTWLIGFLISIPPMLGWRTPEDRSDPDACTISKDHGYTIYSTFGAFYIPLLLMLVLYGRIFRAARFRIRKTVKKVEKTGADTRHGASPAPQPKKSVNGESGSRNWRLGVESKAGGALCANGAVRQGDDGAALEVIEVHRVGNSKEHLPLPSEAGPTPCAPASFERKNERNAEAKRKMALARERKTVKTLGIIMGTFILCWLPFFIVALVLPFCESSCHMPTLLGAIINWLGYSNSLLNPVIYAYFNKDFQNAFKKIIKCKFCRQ
Outline: as §1

[12] = target: serotoninergic 5-HT2A receptor (Homo sapiens, UniProt P28223); assay: Binding assay 5-HT2A (h), [3H]ketanserin, HEK-293 cells; parameters: expressed in transfected cells; host or cells: HEK-293 cells; conditions: read-out: 5-HT2A
Chain of serotoninergic 5-HT2A receptor (P28223 whole entry): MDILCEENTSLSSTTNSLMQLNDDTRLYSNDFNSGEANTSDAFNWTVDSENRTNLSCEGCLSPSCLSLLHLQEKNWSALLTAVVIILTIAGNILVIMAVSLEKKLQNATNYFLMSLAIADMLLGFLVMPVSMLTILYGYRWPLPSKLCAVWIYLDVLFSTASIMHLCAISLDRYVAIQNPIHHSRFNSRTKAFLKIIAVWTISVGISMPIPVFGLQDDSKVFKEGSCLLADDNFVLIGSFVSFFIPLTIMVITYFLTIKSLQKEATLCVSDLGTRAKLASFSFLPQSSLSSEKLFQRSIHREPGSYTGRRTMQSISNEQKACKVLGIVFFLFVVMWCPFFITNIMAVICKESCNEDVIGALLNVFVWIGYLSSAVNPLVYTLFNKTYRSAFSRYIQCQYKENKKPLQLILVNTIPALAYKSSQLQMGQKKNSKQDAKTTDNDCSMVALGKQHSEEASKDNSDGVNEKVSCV
Outline: as §1

[13] = target: histaminergic H1 receptor (Homo sapiens, UniProt P35367); assay: Binding assay H1 (h), [3H]pyrilamine, HEK-293 cells; parameters: expressed in transfected cells; host or cells: HEK-293 cells; conditions: read-out: H1 [%]
Chain of histaminergic H1 receptor (P35367 whole entry): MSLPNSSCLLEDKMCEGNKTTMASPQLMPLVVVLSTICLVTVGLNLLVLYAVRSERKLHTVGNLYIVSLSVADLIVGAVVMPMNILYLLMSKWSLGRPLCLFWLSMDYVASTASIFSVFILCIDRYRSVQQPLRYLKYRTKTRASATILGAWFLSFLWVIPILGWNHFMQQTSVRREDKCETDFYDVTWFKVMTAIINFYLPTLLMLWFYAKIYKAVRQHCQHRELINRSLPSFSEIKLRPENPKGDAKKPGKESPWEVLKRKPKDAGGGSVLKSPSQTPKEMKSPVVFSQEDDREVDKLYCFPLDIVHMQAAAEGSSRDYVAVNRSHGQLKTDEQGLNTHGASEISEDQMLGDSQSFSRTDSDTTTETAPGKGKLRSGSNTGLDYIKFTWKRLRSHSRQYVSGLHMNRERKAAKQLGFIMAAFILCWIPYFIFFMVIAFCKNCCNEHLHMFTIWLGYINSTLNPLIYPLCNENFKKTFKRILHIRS
Outline: as §1

T1 sequence (P31645 whole entry): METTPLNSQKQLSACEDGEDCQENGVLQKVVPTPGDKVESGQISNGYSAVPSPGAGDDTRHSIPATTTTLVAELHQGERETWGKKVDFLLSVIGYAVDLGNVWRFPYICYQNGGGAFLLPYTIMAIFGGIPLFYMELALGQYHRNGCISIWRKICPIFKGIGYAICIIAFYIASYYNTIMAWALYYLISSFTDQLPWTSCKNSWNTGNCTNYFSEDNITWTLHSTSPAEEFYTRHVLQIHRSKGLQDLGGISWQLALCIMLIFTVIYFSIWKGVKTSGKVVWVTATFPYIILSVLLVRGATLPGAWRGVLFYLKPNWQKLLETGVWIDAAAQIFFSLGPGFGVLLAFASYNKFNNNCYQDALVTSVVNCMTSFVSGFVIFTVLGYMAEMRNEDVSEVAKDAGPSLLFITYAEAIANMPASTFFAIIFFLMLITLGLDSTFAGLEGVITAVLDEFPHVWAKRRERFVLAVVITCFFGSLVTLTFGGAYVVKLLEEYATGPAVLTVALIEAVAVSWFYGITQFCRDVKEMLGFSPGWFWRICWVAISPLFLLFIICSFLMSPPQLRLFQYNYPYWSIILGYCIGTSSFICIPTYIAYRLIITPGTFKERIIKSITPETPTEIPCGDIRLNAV

Row | Compound | inhibition at 1 µM [1] [%] | σ [%] [2] [%] | α1 [%] [3] [%] | inhibition at 1 µM [4] [%] | inhibition at 1 µM [5] [%] | inhibition at 1 µM [6] [%] | inhibition at 1 µM [7] [%] | inhibition at 1 µM [8] [%] | inhibition at 1 µM [9] [%] | inhibition at 1 µM [10] [%] | inhibition at 1 µM [11] [%] | inhibition at 1 µM [12] [%] | inhibition at 1 µM [13] [%]
1 | COc1cccc(S(=O)(=O)NCCCCN2CCC(c3noc4cc(F)ccc34)CC2)c1 [Compound 300, N-[4-[4-(6-Fluoro-1,2-benzoxazol-3-yl)piperidin-1-yl]butyl]-3-methoxybenzenesulphonamide] | 30 | 83 | 96 | 18 | 49 | 96 | 89 | 99 | 94 | 96 | 80 | 102 | 87
2 | CC(C)(C)c1ccc(S(=O)(=O)NCCCCN2CCC(c3noc4cc(F)ccc34)CC2)cc1 [Compound 301, 4-tert-Butyl-N-[4-[4-(6-fluoro-1,2-benzoxazol-3-yl)piperidin-1-yl]butyl]benzenesulphonamide] | 45 | 73 | 96 | 18 | 79 | 96 | 94 | 98 | 98 | 96 | 77 | 101 | 88
3 | O=S(=O)(NCCCCN1CCC(c2noc3cc(F)ccc23)CC1)c1ccc(Cl)s1 [Compound 308, 5-Chloro-N-[4-[4-(6-fluoro-1,2-benzoxazol-3-yl)piperidin-1-yl]butyl]thiophene-2-sulphonamide] | 28 | 86 | 91 | 30 | 57 | 95 | 83 | 99 | 96 | 96 | 81 | 102 | 92
4 | Cc1c(S(=O)(=O)NCCCCN2CCC(c3noc4cc(F)ccc34)CC2)sc2ccc(Cl)cc12 [Compound 315, 5-Chloro-N-[4-[4-(6-fluoro-1,2-benzoxazol-3-yl)piperidin-1-yl]butyl]-3-methylbenzothiophene-2-sulphonamide] | 68 | 72 | −13 | 24 | 78 | 97 | 98 | 98 | 93 | 99 | 70 | 102 | 90
5 | O=S(=O)(NCCCCN1CCC(c2noc3cc(F)ccc23)CC1)c1cc2ccccc2o1 [Compound 316, N-[4-[4-(6-Fluoro-1,2-benzoxazol-3-yl)piperidin-1-yl]butyl]benzofuran-2-sulphonamide] | 47 | 81 | 90 | 28 | 66 | 95 | 93 | 97 | 94 | 98 | 84 | 102 | 85
6 | O=S(=O)(NCCCCN1CCC(c2noc3cc(F)ccc23)CC1)c1ccc2c(c1)OCO2 [Compound 320, N-[4-[4-(6-Fluoro-1,2-benzoxazol-3-yl)piperidin-1-yl]butyl]-1,3-benzodioxole-5-sulphonamide] | 13 | 80 | 98 | 24 | 46 | 99 | 82 | 99 | 101 | 100 | 69 | 101 | 84
7 | O=S(=O)(NCCCCN1CCC(c2noc3cc(F)ccc23)CC1)c1ccc2c(c1)OCCO2 [Compound 321, N-[4-[4-(6-Fluoro-1,2-benzoxazol-3-yl)piperidin-1-yl]butyl]-2,3-dihydro-1,4-benzodioxine-6-sulphonamide] | 61 | 74 | 98 | 14 | 65 | 98 | 89 | 100 | 100 | 98 | 78 | 100 | 95
8 | O=S(=O)(NCCCCN1CCC(c2noc3cc(F)ccc23)CC1)c1cccs1 [Compound 325, N-[4-[4-(6-Fluoro-1,2-benzoxazol-3-yl)piperidin-1-yl]butyl]thiophene-2-sulphonamide] | 20 | 85 | 95 | 26 | 49 | 95 | 72 | 98 | 93 | 96 | 62 | 102 | 83
9 | O=S(=O)(NCCCN1CCC(c2noc3cc(F)ccc23)CC1)c1cnc2ccccn12 [Compound 356, N-[3-[4-(6-Fluoro-1,2-benzoxazol-3-yl)piperidin-1-yl]propyl]imidazo[1,2-a]pyridine-3-sulphonamide] | 11 | 70 | 101 | 2 | 83 | 96 | 78 | 99 | 96 | 98 | 95 | 99 | 80
